Experimental data from US20060084652A1, “Alkylidene-tetrahydronaphthalene derivatives, process for their production and their use as anti-inflammatory agents” (priority 2004, published 2006).
pIC50: −log10 of the molar value.

Tests used:
[1] = molecular target: T1, glucocorticoid receptor (GR) (Homo sapiens, UniProt P04150); experiment: Binding to the glucocorticoid receptor, cytosol preparations of Sf9 cells, [3H]-dexamethasone as reference; settings: recombinant GR
T1 construct: made in house; host or cells: Sf9 cells infected with recombinant baculovirus (cytosol preparation)
T1 sequence (P04150 1-777): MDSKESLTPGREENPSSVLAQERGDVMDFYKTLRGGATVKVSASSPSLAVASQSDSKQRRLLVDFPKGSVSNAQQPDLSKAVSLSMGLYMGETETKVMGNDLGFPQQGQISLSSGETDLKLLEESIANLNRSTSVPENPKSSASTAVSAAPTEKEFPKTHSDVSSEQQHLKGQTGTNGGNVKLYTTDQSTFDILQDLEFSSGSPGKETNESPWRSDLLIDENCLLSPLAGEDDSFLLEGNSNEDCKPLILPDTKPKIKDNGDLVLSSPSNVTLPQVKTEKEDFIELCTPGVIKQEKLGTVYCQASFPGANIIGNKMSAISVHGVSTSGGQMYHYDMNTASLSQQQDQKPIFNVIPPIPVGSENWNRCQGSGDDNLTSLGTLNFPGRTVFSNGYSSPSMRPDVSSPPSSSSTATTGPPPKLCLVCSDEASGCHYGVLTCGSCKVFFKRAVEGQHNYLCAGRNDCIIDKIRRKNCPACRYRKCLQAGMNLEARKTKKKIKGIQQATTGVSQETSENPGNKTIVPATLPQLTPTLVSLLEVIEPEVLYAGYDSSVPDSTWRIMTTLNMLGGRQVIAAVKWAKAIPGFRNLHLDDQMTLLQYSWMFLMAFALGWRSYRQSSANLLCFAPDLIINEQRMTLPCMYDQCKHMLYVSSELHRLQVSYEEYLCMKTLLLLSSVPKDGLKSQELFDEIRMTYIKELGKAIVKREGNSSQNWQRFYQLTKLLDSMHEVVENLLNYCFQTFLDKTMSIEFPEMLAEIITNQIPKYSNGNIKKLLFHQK
Description: The binding of substances to the glucocorticoid receptor (GR) and other steroid-hormone receptors (mineral corticoid receptor (MR), progesterone receptor (PR) and androgen receptor (AR)) is examined with the aid of recombinantly produced receptors. Cytosol preparations of Sf9 cells, which had been infected with recombinant baculoviruses that code for the GR, are used for the binding studies. In comparison to the reference substance [^3H]-dexamethasone, the substances show a high affinity to the GR. IC50(GR)=20 nM and IC50(PR)>1 μM were measured for the compound from Example 1, and IC50(GR)=30 nM and IC50(PR)>1 μM were measured for the compound from Example 2.

[2] = tested on: secretion of cytokine IL-8 in monocyte cell line THP-1; experiment: Inhibition of LPS-triggered IL-8 secretion in THP-1 cells (ELISA); assay type: cell-based, human
Procedure: The concentration of the cytokines was determined in the supernatant by means of commercially available ELISA kits.

| Molecule | pIC50 [1] | efficiency relative to [3H]-dexamethasone as a standard ([2]; IL-8 inhibition, THP-1) | pIC50 ([2]; THP-1, supernatant ELISA, read-out: IC50(IL8)) |
| --- | --- | --- | --- |
| (cis, Z)-5-{[4-Ethylidene-6-fluoro-2,5-dihydroxy-2-(trifluoromethyl)-1,2,3,4-tetrahydronaphthalen-1-yl]amino}-quinolin-2(1H)-one [Example 2] | 7.52 | – | – |
| C/C=C1/C[C@@](O)(C(F)(F)F)[C@H](Nc2cccc3nc(C)ccc23)c2ccc(F)cc21 (relative stereo) [Example 1, (cis, Z)-4-Ethylidene-6-fluoro-1-[(2-methylquinolin-5-yl)amino]-2-(trifluoromethyl)-1,2,3,4-tetrahydronaphthalen-2-ol] | 7.70 | 90% | 8.19 |
